According to patent US7648999B2, “Activator for peroxisome proliferator-activated receptor δ” (Nippon Chemiphar Co., Ltd., priority 2007, dated 2010):
Read-outs that look alike come from different tables or passages of the source.

Columns and labels:
Assay type in all cases: cell-based
PPARγ (GAL4-hPPARγ LBD) = molecular target: T1, PPARγ (GAL4-hPPARγ LBD) (Homo sapiens, UniProt P37231); test: PPARγ transactivation activity (GAL4 chimera luciferase reporter in CV-1 cells)
T1 construct: Receptor expression plasmid (GAL4-hPPARα, LBD GAL4-hPPARγ LBD, GAL4-hPPARδ LBD); expressed in transfected cells; host or cells: CV-1 cells
T1 sequence (P37231 238-503 limits assumed): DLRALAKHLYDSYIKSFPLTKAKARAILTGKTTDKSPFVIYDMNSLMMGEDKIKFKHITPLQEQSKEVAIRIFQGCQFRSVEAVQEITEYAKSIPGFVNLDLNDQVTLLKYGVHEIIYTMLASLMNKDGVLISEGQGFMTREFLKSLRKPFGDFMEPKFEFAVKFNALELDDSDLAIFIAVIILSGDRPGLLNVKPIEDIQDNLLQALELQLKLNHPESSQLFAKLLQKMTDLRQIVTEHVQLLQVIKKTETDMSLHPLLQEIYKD

PPARδ (GAL4-hPPARδ LBD) = molecular target: T2, PPARδ (GAL4-hPPARδ LBD) (Homo sapiens, UniProt Q03181); test: PPARδ transactivation activity (GAL4 chimera luciferase reporter in CV-1 cells)
T2 construct: A chimeric receptor expression plasmid (GAL4-hPPARδ LBD), a reporter plasmid (UASx4-TK-LUC); expressed in transfected cells; host or cells: CV-1 cells
T2 sequence (Q03181 211-439 limits assumed): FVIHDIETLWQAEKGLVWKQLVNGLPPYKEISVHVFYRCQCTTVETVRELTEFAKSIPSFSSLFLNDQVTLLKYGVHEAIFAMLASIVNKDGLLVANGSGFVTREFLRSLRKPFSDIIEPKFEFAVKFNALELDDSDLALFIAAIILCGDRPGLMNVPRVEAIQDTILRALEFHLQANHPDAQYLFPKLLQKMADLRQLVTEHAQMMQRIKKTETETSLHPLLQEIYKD
Method: A chimeric receptor expression plasmid (GAL4-hPPARδ LBD), a reporter plasmid (UASx4-TK-LUC) and β-galactosidase (β-GAL) are transfected into CV-1 cells by utilizing a lipofection reagent DMRIE-C (Life Technologies).
(1) Measurement of PPARα, γ, δ Transactivation Activity
CV-1 cells were obtained from Tohoku University Aging Medical Laboratory, Medical Cell Collection Center. All test compounds were dissolved in dimethylsulfoxide (DMSO). Final concentration of DMSO was 0.1%.
CV-1 cells were seeded in 24 well culture plates at 2×10^5 cells per well, and cultured for 24 hours OPTI-MEM I Reduced Serum Medium (Life Technologies, 500 μL/well) containing 4%-fetal bovine serum (FBS). After washing with OPTI-MEM, transfection mixture (250 μL/well) containing 0.03 μg of GAL4-hPPARδ LBD, 0.25 μg of UASx-4-TK-LUC, 0.35 μg of βGAL, and 2 μL of lipofection reagent, DMRIE-C (Life Technologies) were added. The cells were incubated for 5 hours at 37° C.
The cells were washed and incubated for 40 hours in the presence of the test compound (final concentration was 10^−7M or 10^−6M)
The culture medium was removed and the cells were washed with PBS twice. A solubilizing buffer (100 μL/well) containing 25 mM Tris-PO4 (pH 7.8), 15% v/v glycerol, 2% CHAPS, 1% Lecithin, 1% BSA, 4 mM EGTA (pH 8.0), 8 mM MgCl2, 1 mM DTT was added. After the incubation for 10 minutes at room temperature, a portion (20 μL) of the solution was transferred into a 96-well plate. Subsequently, 100 μL of luciferase substrate solution (Piccagene: available from Nippon Gene Co., Ltd.) was added, and a luminous intensity per one second (luciferase activity) was measured using a microluminoreader (Type MLR-100, Corona Electrics Co., Ltd.). Each luciferase activity was corrected by the transfection efficiency which was calculated from β-galactosidase activity. The assay method of β-galactosidase activity was as follows: A portion (50 μL) of the solubilized sample was transferred into another 96-well plate; 100 μL of ONPG (2-nitrophenyl-β-galactopyranoside) solution was added and incubated for 5 minutes at room temperature. 50 μL of a reaction stopping solution (1M sodium carbonate solution) was added. Then the absorbance at 414 nm was measured.

PPARα (GAL4-hPPARα LBD) = molecular target: T3, PPARα (GAL4-hPPARα LBD) (Homo sapiens, UniProt Q07869); test: PPARα transactivation activity (GAL4 chimera luciferase reporter in CV-1 cells)
T3 construct: Receptor expression plasmid (GAL4-hPPARα, LBD GAL4-hPPARγ LBD, GAL4-hPPARδ LBD); expressed in transfected cells; host or cells: CV-1 cells
T3 sequence (Q07869 239-466 limits assumed): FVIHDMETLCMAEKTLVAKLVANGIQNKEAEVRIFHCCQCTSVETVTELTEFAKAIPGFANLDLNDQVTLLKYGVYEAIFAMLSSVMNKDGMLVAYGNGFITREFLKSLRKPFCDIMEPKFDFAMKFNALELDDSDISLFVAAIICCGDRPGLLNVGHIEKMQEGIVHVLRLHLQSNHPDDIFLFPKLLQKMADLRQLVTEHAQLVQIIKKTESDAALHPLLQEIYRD

[1] = compound at 10^−7 M, CV-1 cells, 40 hours, positive control 10^−5 M Rosiglitazone = 100%
[2] = compound at 10^−7 M, CV-1 cells, 40 hours, positive control 10^−4 M L-165041 = 100%
[3] = compound at 10^−7 M, CV-1 cells, 40 hours, positive control 10^−4 M WY-14643 = 100%
[4] = compound at 10^−7 M (value without parentheses)
[5] = compound at 10^−6 M (value in parentheses)

Row | Compound | Relative activity for PPAR transactivation, γ (PPARγ (GAL4-hPPARγ LBD); [4]) | Relative activity for PPAR transactivation, δ (PPARδ (GAL4-hPPARδ LBD); [4]) | Relative activity for PPAR transactivation, α (PPARα (GAL4-hPPARα LBD); [4]) | other results
1 | 4-[3-[4-Methyl-2-(4-trifluoromethyl)phenyl-5-thiazolyl]propionyl]-2-methylphenoxy]acetic acid [Example 44] | – | – | – | Relative activity for PPAR transactivation, γ (PPARγ (GAL4-hPPARγ LBD)): (0) % of control; PPARδ transactivation activity / activating effect (in words) (PPARδ (GAL4-hPPARδ LBD)): inferior in the PPARδ transactivation activity; Relative activity for PPAR transactivation, δ (PPARδ (GAL4-hPPARδ LBD)): (38) % of control; Relative activity for PPAR transactivation, α (PPARα (GAL4-hPPARα LBD)): (0) % of control
2 | Cc1cc(C(=O)CCc2sc(-c3ccc(C(F)(F)F)cc3)nc2C(C)C)ccc1OCC(=O)O [Example 3, [4-[3-[2-(4-Trifluoromethyl)phenyl-4-isopropyl-5-thiazolyl]propionyl]-2-methylphenoxy]acetic acid] | – | – | – | Relative activity for PPAR transactivation, γ (PPARγ (GAL4-hPPARγ LBD); [1]): 5 % of control; Relative activity for PPAR transactivation, δ (PPARδ (GAL4-hPPARδ LBD); [2]): 101 % of control; Relative activity for PPAR transactivation, α (PPARα (GAL4-hPPARα LBD); [3]): 0 % of control
3 | Cc1cc(C(=O)CCc2nc(-c3ccc(Cl)cc3O)oc2C(C)C)ccc1OCC(=O)O [Example 6, [4-[3-[2-(2-Hydroxy-4-chlorophenyl)-5-isopropyl-4-oxazolyl]propionyl]-2-methylphenoxy]acetic acid] | – | – | – | Relative activity for PPAR transactivation, γ (PPARγ (GAL4-hPPARγ LBD); [1]): 6 % of control; Relative activity for PPAR transactivation, δ (PPARδ (GAL4-hPPARδ LBD); [2]): 73 % of control; Relative activity for PPAR transactivation, α (PPARα (GAL4-hPPARα LBD); [3]): 0 % of control
4 | CCCCCCc1nc(-c2ccc(C(F)(F)F)cc2)sc1CCC(=O)c1ccc(OCC(=O)O)c(C)c1 [Example 11, [4-[3-[4-Hexyl-2-(4-trifluoromethyl)phenyl-5-thiazolyl]propionyl]-2-methylphenoxy]acetic acid] | 1 % of control | 56 % of control | 0 % of control | –
5 | CCCCCCc1nc(-c2ccc(C(F)(F)F)cc2)sc1CCC(=O)c1ccc(OC(C)(C)C(=O)O)c(C)c1 [Example 12, 2-[4-[3-[4-Hexyl-2-(4-trifluoromethyl)phenyl-5-thiazolyl]propionyl]-2-methylphenoxy]-2-methylpropionic acid] | 31 % of control | 45 % of control | 75 % of control | –
6 | Cc1cc(C=CCc2sc(-c3ccc(C(F)(F)F)cc3)nc2C(C)C)ccc1OC(C)(C)C(=O)O [Example 13, 2-[4-[3-[4-Isopropyl-2-(4-trifluoromethyl)phenyl-5-thiazolyl]-1-propenyl]-2-methylphenoxy]-2-methylpropionic acid] | 17 % of control | 62 % of control | 63 % of control | –
7 | Cc1cc(OCC(=O)O)ccc1C(=O)CCc1sc(-c2ccc(C(F)(F)F)cc2)nc1C(C)C [Example 14, [4-[3-[4-Isopropyl-2-(4-trifluoromethyl)phenyl-5-thiazolyl]propionyl]-3-methylphenoxy]acetic acid] | 0 % of control | 42 % of control | 0 % of control | –
8 | Cc1cc(OC(C)(C)C(=O)O)ccc1C(=O)CCc1sc(-c2ccc(C(F)(F)F)cc2)nc1C(C)C [Example 16, [4-[3-[4-Isopropyl-2-(4-trifluoromethyl)phenyl-5-thiazolyl]propionyl]-3-methylphenoxy]-2-methylpropionic acid] | 3 % of control | 57 % of control | 62 % of control | –
9 | CCCc1cc(C(=O)CCc2sc(-c3ccc(C(F)(F)F)cc3)nc2C(C)C)ccc1OCC(=O)O [Example 18, [4-[3-[4-Isopropyl-2-(4-trifluoromethyl)phenyl-5-thiazolyl]propionyl]-2-propylphenoxy]acetic acid] | 1 % of control | 70 % of control | 0 % of control | –
10 | C=CCc1cc(C(=O)CCc2sc(-c3ccc(C(F)(F)F)cc3)nc2C(C)C)ccc1OCC(=O)O [Example 19, 2-Allyl-4-[3-[4-isopropyl-2-(4-trifluoromethyl)phenyl-5-thiazolyl]propionyl]phenoxyacetic acid] | 2 % of control | 86 % of control | 0 % of control | –
11 | Cc1cc(C(=O)C=Cc2sc(-c3ccc(C(F)(F)F)cc3)nc2C(C)C)ccc1OCC(=O)O [Example 24, [4-[3-[4-Isopropyl-2-(4-trifluoromethyl)phenyl-5-thiazolyl]propenoyl]-2-methylphenoxy]acetic acid] | 0 % of control | 75 % of control | 0 % of control | –
12 | Cc1cc(C(=O)C=Cc2sc(-c3ccc(C(F)(F)F)cc3)nc2C(C)C)ccc1OC(C)(C)C(=O)O [Example 25, 2-[4-[3-[4-Isopropyl-2-(4-trifluoromethyl)phenyl-5-thiazolyl]propenoyl]-2-methylphenoxy]-2-methylpropionic acid] | – | 61 % of control | – | –
13 | CC(C)c1nc(-c2ccc(C(F)(F)F)cc2)sc1CCC(=O)c1ccc(OCC(=O)O)c(Cl)c1 [Example 33, [4-[3-[4-Isopropyl-2-(4-trifluoromethyl)phenyl-5-thiazolyl]propionyl]-2-chlorophenoxy]acetic acid] | 1 % of control | 44 % of control | 0 % of control | –
14 | Cc1cc(C(=O)CCc2nc(-c3ccc(C(F)(F)F)cc3)sc2C(C)C)ccc1OCC(=O)O [Example 37, [4-[3-[5-Isopropyl-2-(4-trifluoromethyl)phenyl-4-thiazolyl]propionyl]-2-methylphenoxy]acetic acid] | – | – | – | Relative activity for PPAR transactivation, δ (PPARδ (GAL4-hPPARδ LBD)): (71) % of control
15 | Cc1ccc(C(=O)CCc2sc(-c3ccc(C(F)(F)F)cc3)nc2C(C)C)cc1OCC(=O)O [Example 41, [5-[3-[4-Isopropyl-2-(4-trifluoromethyl)phenyl-5-thiazolyl]propionyl]-2-methylphenoxy]acetic acid] | – | – | – | Relative activity for PPAR transactivation, γ (PPARγ (GAL4-hPPARγ LBD); [5]): (60) % of control; Relative activity for PPAR transactivation, α (PPARα (GAL4-hPPARα LBD); [5]): (5) % of control
16 | Cc1ccc(C(=O)CCc2sc(-c3ccc(C(F)(F)F)cc3)nc2C(C)C)cc1OC(C)(C)C(=O)O [Example 42, 2-[5-[3-[4-Isopropyl-2-(4-trifluoromethyl)phenyl-5-thiazolyl]propionyl]-2-methylphenoxy]-2-methylpropionic acid] | – | – | – | Relative activity for PPAR transactivation, γ (PPARγ (GAL4-hPPARγ LBD); [5]): (55) % of control; Relative activity for PPAR transactivation, α (PPARα (GAL4-hPPARα LBD); [5]): (68) % of control
17 | [4-[3-[4-Isopropyl-2-(4-methoxyphenyl)-5-thiazolyl]propionyl]-2-methylphenoxy]propionic acid [Example 26] | – | 18 % of control | – | –
